From the NIST ThermoML archive (doi:10.1016/j.jct.2014.06.012)

Assay: molar heat capacity at constant pressure
Details: 101.33 kPa, Crystal 1, Vacuum adiabatic calorimetry

O=P([O-])([O-])[O-].[Cs+].[Mn+2] [cesium manganese(II) phosphate]
Details | molar heat capacity at constant pressure [J/K/mol]
146.58 K | 93.95
149.52 K | 95.03
150 K | 95.37
152.45 K | 96.2
155.39 K | 97.36
158.13 K | 98.36
160 K | 99.03
160.88 K | 99.36
163.62 K | 100.44
166.37 K | 101.44
168.91 K | 102.35
170 K | 102.68
171.45 K | 103.27
174.38 K | 104.26
177.32 K | 105.26
180 K | 106.18
180.25 K | 106.26
183.19 K | 107.26
186.12 K | 108.17
189.06 K | 109.17
190 K | 109.58
191.79 K | 110.08
194.53 K | 111
197.27 K | 111.91
199.58 K | 112.58
200 K | 112.74
201.38 K | 113.08
203.92 K | 113.83
206.38 K | 114.57
209.38 K | 115.65
210 K | 115.82
212.32 K | 116.57
215.39 K | 117.48
218.18 K | 118.31
219.88 K | 118.73
220 K | 118.81
221.58 K | 119.23
224.09 K | 119.98
226.59 K | 120.73
229.5 K | 121.56
230 K | 121.56
232.41 K | 122.39
235.32 K | 123.3
238.23 K | 124.22
240 K | 124.3
